{
  "source": "patent US12600740B2",
  "about": "“Fluorinated N-acetyl glucosamine analogs and xylose derivatives” (UTI Limited Partnership, priority 2018, dated 2026)",
  "key": {"EAE mice": {"test_system": "EAE mice", "test": "Perivascular cuffs per spinal cord and Imaris quantification of CD45+ cells in EAE mice", "type": "in vivo, mouse", "description": "Previously it was shown that CSPGs are accumulated in perivascular cuffs and may have a role in activating immune cells and promoting their migration into the CNS [Stephenson, E. L. et al. Chondroitin sulfate proteoglycans as novel drivers of leucocyte infiltration in multiple sclerosis. Brain: a journal of neurology 141, 1094-1110 (2018)]. For the current study, cervical spinal cord sections from EAE mice treated with Ac-4,4-diF-GlcNAc 16 or vehicle were stained with pan-laminin and CD45. Confocal images were processed by Imaris software to quantify the number of CD45+ cells and their intra-parenchymal distances from perivascular cuffs as previously described [Stephenson, E. L. et al. Chondroitin sulfate proteoglycans as novel drivers of leucocyte infiltration in multiple sclerosis. Brain: a journal of neurology 141, 1094-1110 (2018)] (FIG. 10f).\nPerivascular cuffs were identified with pan-laminin staining of two basement membranes with CD45+ cells clustered within the perivascular space. To obtain the average number of perivascular cuffs per spinal cord, perivascular cuffs were counted on 4 cervical spinal cord sections (each >200 μm apart), and then averaged to obtain the average perivascular cuffs per spinal cord per mouse. The Imaris software (Bitplane, Switzerland) was used to quantify the number and distance of CD45+ cells around perivascular cuffs. CD45+ cells were registered as spots and the laminin-positive membranes were registered as surfaces. The Xtension component in Imaris ‘distance transformation’ calculated the distance of every CD45+ cell from the perivascular cuff."}, "splenocytes": {"test_system": "splenocytes", "test": "Splenocyte thymidine proliferation assay (anti-CD3/anti-CD28)", "type": "cell-based, mouse", "conditions": "increasing concentrations, 48 hours"}},
  "data": [
    {"smiles": "CC(=O)NC1C(OC(C)=O)OC(COC(C)=O)C(F)(F)[C@@H]1OC(C)=O", "note": "(mixture of isomers) [Compound 16, 2-Acetamido-1,3,6-tri-O-acetyl-2,4-dideoxy-4,4-difluoro-α/β-D-xylo-hexopyranose]", "values": [
      {"measurement": "CD45+ cells by distance from perivascular cuffs, overall versus vehicle", "setting": "EAE mice; 0 to 100 μm, two-way repeated measures ANOVA", "result": "overall significant difference"},
      {"measurement": "average number of perivascular cuffs per spinal cord", "setting": "EAE mice; 25 mg/kg daily day 7 to 15", "result": "significantly reduced average number of perivascular cuffs"},
      {"measurement": "CD45+ cells in the vicinity of perivascular cuffs (within 100 μm)", "setting": "EAE mice; 25 mg/kg daily day 7 to 15, cervical spinal cord", "result": "significantly fewer CD45+ cells in the vicinity of perivascular cuffs"},
      {"measurement": "number of CD45+ cells at 50-100 μm from perivascular cuffs versus vehicle", "setting": "EAE mice; 50-100 μm", "result": "significant difference"},
      {"measurement": "dose-response to reduce proliferation in splenocytes", "setting": "splenocytes", "result": "more effective than Ac-4-F-GlcNAc 3 at lower concentrations"}
    ]}
  ]
}
